Test results as given in article PMC10110893, “[…]-derived synthetic cannabinoids inhibit T-type calcium channels with divergent effects on seizures in rodent models of epilepsy” (Frontiers in Physiology, 2023).

Experiments:
T-type channels = test system: T-type channels; parameters: method as in Kevin et al., 2022; details: single 10 μM concentration, FLIPR calcium flux and whole-cell patch clamp, ref Kevin et al., 2022; cited from earlier work
human Cav3.2 = target: T1, human Cav3.2 (Homo sapiens, UniProt O95180); assay: FLIPR calcium flux assay, Cav3.2; assay type: cell-based
T1 construct: expressed in transfected cells; host or cells: HEK293 FlpIn T-Rex cells (Invitrogen)
Procedure: HEK293 FlpIn T-Rex cells (Invitrogen, CA, United States) stably expressing human Cav3.1, Cav3.2, or Cav3.3 were maintained in Dulbecco’s Modified Eagle Medium (DMEM) supplemented with 10% foetal bovine serum (FBS), 1% penicillin-streptomycin (P/S) at 37°C, and 5% CO2 as previously described ([Bladen et al., 2021]; [Udoh et al., 2022]). Hygromycin (80 μg/mL) and blasticidin (15 μg/mL) were used as selection antibiotics and cells were passaged at 80% confluency. For experiments, cells were resuspended in Leibovitz’s L-15 media (containing 1% FBS, 1% P/S, 15 mM glucose, 2 μg/mL tetracycline), plated in black, clear-bottomed poly-D-lysine-coated 96-well plates (90 μL) (Corning, NY, United States), and incubated overnight in ambient air at 37°C. All compounds tested in cellular assays were prepared as stock solutions in DMSO and final DMSO concentration was 0.1%.
Intracellular calcium flux was measured using a fluorometric imaging plate-reader (FLIPR) Calcium 5 Assay Kit and FlexStation 3 Microplate Reader (Molecular Devices, San Jose, United States). […]
Fluorescence readings were taken at 2 s intervals (λ excitation = 485 nm, λ emission = 525 nm). […] Baseline fluorescence averaged over the 20 s interval preceding CaCl2 addition was subtracted and normalized to the vehicle response. Changes in fluorescence were measured in relative fluorescence units (RFU). […]

human Cav3.1 = target: T2, human Cav3.1 (Homo sapiens, UniProt O43497); assay: Whole-cell patch-clamp electrophysiology, Cav3.1; assay type: cell-based
T2 construct: expressed in transfected cells; host or cells: HEK293 FlpIn T-Rex cells (Invitrogen)
Procedure: All whole-cell voltage-clamp recordings from HEK293 FlpIn T-Rex cells stably transfected with human Cav3.1 were performed at room temperature. At least 24 h prior to experiments, cells were detached from flasks using trypsin/EDTA and plated into 10 cm sterile tissue culture dishes containing 10 mL of supplemented DMEM and 10–15 glass coverslips (12 mm diameter, ProScitech, QLD, Australia). Culture dishes were then kept overnight in same conditions as flasks to allow cells to adhere to coverslips. They were then transferred to a 30°C/5% CO2 incubator to inhibit cell proliferation until ready to be used for electrophysiology experiments. At this stage, channel expression was induced with tetracycline (2 μg/mL, Sigma-Aldrich) 8–24 h prior to recording cells.
External recording solutions contained (in mM): 114 CsCl, 5 BaCl2, 1 MgCl2, 10 HEPES, 10 glucose, adjusted to pH 7.4 with CsOH. The internal patch pipette solution contained (in mM): 126.5 CsMeSO4, 2 MgCl2, 11 EGTA, 10 HEPES adjusted to pH 7.3 with CsOH. […] Liquid junction potentials for the above solutions were calculated before experiments using pClamp 10 software and corrected during experiments. […] Currents were elicited from a holding potential of −100 mV and were measured by conventional whole-cell patch clamp techniques using an Axopatch 200B amplifier in combination with Clampex 9.2 software (Molecular Devices, Sunnyvale, CA). […]

[1] = test system: Scn1a +/- mouse model of Dravet syndrome; assay: Spontaneous seizures and survival monitoring in Scn1a+/- mice; assay type: in vivo
Procedure: Scn1a ^ +/− mice purchased from The Jackson Laboratory (stock 37107-JAX; Bar Harbour, United States) were maintained as a congenic line on a 129S6/SvEvTac background (129. Scn1a ^+/−). F1 mice were generated by crossing 129. Scn1a ^+/− mice with wild-type C57BL/6J mice (Jackson Laboratory stock no. 000664) and group housed. Scn1a genotype was determined as previously described ([Miller et al., 2014]).
On P18, male and female Scn1a ^ +/− mice were weaned and randomly assigned to treatment groups (untreated or SB2193) with n = 17–19 per group. For spontaneous seizure and survival experiments, SB2193 was administered sub-chronically via supplementation of the compound into chow to avoid stress associated with repeated i.p. injections. Chow was formulated at 5,000 mg/kg SB2193 in chow to provide target brain concentrations of 0.73 μM, with the daily oral dose based on the assumption that each mouse consumes approximately 3 g chow/day. Bodyweight of mice was monitored during the administration period to ensure consumption of chow. Animals in both treatment groups gained weight at an equivalent rate over the chow supplementation period (Supplementary Figure S1).
Continuous video recordings from 00:00 P23 to 24:00 P24 were made using a Samsung SCB-5003 days/night camera equipped with an infrared lens (Seoul, South Korea). The number of spontaneous generalised tonic-clonic seizures (GTCS) occurring over the 48 h recording period was quantified offline by a blinded observer. Statistical comparison was performed in GraphPad Prism using a Mann-Whitney U test as data were non-parametric. Treatment was continued to P30 to monitor survival of mice. Scn1a ^ +/− mice have a high premature mortality rate, with approximately 50% of animals surviving to P30 ([Miller et al., 2014]). We have observed substantial variability in the mortality rate across experimental cohorts which is difficult to explain and likely due to stochastic factors ([Anderson et al., 2020]; [Anderson et al., 2021]; [Anderson et al., 2022]). […]

T2 sequence (O43497 whole entry): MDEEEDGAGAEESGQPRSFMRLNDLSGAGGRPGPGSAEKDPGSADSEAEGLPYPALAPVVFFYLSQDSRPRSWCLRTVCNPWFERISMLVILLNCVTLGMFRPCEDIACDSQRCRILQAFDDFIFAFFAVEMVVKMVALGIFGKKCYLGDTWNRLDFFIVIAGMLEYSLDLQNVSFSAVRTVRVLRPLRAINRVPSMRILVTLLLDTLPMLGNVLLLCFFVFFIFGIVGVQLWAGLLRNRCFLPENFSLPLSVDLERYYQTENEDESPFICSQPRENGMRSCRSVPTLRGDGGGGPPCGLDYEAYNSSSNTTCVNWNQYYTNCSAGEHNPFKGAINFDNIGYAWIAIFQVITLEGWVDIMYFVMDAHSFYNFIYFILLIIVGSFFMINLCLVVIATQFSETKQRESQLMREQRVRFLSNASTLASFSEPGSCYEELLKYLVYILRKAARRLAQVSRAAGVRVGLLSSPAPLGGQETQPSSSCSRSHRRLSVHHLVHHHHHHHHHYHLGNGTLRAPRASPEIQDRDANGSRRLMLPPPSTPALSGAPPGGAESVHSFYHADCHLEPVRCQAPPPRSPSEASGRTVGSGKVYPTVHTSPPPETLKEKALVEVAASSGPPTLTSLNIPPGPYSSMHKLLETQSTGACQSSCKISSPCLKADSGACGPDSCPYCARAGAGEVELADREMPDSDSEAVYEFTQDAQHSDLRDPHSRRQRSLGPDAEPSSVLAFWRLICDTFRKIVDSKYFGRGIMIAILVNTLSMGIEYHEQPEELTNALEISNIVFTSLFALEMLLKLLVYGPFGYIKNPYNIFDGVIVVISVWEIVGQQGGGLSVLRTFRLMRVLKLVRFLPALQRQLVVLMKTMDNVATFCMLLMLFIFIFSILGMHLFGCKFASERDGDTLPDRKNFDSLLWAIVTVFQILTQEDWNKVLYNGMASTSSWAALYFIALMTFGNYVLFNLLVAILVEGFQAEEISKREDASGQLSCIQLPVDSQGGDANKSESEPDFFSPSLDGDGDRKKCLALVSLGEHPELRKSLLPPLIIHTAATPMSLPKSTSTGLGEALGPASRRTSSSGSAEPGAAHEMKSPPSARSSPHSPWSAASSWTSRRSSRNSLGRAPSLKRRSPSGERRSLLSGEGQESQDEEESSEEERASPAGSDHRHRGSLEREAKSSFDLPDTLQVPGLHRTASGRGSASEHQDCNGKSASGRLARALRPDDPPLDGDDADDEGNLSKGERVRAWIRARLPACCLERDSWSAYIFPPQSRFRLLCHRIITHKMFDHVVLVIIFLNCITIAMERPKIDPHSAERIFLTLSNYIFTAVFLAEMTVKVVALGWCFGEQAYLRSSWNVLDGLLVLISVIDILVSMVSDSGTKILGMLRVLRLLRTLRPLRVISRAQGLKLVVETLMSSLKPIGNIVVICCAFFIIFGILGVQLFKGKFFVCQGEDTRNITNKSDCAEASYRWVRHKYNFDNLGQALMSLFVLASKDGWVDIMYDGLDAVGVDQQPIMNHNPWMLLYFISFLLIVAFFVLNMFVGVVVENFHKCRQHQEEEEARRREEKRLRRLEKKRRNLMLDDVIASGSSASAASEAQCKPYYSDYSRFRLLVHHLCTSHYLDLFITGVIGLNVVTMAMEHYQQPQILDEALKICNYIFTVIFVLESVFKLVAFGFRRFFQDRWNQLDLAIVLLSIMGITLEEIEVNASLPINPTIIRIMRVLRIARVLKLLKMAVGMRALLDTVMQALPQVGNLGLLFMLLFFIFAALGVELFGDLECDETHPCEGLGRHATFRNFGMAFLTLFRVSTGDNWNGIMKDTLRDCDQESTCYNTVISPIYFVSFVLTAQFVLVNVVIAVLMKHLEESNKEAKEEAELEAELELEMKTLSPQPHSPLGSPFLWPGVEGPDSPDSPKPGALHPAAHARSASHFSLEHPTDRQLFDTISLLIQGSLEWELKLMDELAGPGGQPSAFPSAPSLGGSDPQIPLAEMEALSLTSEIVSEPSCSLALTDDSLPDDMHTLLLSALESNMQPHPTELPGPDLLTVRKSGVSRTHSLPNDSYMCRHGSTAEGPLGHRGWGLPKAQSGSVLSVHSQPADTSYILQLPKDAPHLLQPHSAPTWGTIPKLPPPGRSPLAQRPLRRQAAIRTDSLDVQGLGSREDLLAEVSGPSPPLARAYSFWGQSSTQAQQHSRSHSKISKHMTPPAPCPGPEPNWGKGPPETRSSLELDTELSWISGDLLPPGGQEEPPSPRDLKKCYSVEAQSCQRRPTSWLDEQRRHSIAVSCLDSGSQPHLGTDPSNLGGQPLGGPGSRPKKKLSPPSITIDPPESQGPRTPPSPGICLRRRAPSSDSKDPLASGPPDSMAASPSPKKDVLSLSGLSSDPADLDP
T1 sequence (O95180 whole entry): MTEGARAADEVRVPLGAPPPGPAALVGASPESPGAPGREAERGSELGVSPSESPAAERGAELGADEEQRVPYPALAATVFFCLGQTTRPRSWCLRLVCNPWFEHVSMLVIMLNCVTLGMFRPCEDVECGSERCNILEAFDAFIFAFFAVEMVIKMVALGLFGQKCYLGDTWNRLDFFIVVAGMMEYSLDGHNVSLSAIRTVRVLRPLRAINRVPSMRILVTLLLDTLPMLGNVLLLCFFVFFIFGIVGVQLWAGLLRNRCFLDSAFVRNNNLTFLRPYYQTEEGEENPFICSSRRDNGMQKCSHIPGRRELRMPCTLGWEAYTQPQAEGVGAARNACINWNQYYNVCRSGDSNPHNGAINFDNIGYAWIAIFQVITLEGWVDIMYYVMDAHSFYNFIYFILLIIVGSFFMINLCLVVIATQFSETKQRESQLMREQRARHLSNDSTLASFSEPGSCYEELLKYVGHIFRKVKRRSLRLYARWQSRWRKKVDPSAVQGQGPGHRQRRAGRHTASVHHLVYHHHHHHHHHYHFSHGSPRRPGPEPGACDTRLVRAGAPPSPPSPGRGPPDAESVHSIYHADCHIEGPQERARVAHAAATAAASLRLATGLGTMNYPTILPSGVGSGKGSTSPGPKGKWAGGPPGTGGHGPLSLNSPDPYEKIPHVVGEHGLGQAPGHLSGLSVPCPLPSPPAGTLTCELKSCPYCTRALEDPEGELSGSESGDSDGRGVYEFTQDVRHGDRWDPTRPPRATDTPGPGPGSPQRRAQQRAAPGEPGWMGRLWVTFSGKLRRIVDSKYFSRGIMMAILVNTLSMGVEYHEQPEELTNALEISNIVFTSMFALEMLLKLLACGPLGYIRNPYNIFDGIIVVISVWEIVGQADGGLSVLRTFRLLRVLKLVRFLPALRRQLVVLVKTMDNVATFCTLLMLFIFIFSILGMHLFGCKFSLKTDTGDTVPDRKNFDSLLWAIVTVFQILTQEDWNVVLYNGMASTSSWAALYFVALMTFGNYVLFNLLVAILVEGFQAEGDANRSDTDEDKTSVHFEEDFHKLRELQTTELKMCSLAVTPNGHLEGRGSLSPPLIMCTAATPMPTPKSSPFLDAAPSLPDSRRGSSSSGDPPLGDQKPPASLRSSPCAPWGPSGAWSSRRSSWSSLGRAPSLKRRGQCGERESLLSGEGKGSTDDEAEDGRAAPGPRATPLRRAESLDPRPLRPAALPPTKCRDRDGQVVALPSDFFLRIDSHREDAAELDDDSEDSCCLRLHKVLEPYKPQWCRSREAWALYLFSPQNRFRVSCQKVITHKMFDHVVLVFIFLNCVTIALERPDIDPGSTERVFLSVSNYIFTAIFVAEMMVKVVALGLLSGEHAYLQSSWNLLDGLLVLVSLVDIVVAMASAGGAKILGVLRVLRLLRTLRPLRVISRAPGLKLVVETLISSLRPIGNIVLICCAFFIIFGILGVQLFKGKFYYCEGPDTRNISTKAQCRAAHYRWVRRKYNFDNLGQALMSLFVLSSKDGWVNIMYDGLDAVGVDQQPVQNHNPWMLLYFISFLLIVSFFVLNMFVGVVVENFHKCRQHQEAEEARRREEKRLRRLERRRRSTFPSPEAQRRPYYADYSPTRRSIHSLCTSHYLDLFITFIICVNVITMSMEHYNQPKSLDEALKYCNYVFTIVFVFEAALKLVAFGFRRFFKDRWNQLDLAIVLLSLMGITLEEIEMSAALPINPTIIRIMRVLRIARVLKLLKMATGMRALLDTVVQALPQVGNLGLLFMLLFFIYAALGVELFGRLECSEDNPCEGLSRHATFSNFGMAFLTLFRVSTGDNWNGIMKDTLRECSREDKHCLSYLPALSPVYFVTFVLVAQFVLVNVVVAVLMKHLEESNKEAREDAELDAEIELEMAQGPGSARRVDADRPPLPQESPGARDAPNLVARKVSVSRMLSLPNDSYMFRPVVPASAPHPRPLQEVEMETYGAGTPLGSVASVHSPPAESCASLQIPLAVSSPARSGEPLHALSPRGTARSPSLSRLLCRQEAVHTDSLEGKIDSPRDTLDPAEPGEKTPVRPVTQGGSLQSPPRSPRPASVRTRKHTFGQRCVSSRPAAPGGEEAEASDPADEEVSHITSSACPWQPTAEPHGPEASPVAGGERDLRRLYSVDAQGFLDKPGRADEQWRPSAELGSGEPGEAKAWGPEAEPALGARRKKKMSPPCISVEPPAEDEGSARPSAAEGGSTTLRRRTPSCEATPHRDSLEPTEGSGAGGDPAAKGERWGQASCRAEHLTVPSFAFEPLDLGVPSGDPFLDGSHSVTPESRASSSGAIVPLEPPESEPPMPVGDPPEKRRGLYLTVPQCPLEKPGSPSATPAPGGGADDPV

CCCCCn1cc(C(=O)N2CCN(C(=O)OC(C)(C)C)CC2)c2ccccc21 [SB2193]
inhibition of T-type channels (T-type channels): strongly inhibit | IC50 (human Cav3.2): 5.9 µM | potency in patch clamp less than that determined by the FLIPR assay (human Cav3.1; Cav3.1, patch clamp vs FLIPR): approximately 4 fold | IC50 (human Cav3.1; whole-cell patch clamp, n = 7–8, read-out: Cav3.1 pIC50 (converted)): 3.55 µM | survival of mice to P30 ([1]; 5,000 mg/kg chow orally P18–P30): no effect | spontaneous seizure (GTCS) frequency vs control mice ([1]; 5,000 mg/kg chow orally from P18, 48 h recording P23-24, n = 17–19): did not decrease | bodyweight change ([1]; SB2193-treated vs untreated chow, P18 to P30, n = 14): no effect of treatment
